Measurements from paper PMC6017733, “Identification of Bichalcones as Sirtuin Inhibitors by Virtual Screening and In Vitro Testing” (Molecules : A Journal of Synthetic Chemistry and Natural …, 2018).

Legend:
Type in all cases: biochemical
sirt1 = target: T1, sirt1 (Homo sapiens, UniProt Q96EB6); test: fluorescent deacetylase assay (ZMAL substrate, trypsin-coupled)
T1 construct: sirt1_133–747 (GST-tagged)
T1 sequence (Q96EB6 133-747): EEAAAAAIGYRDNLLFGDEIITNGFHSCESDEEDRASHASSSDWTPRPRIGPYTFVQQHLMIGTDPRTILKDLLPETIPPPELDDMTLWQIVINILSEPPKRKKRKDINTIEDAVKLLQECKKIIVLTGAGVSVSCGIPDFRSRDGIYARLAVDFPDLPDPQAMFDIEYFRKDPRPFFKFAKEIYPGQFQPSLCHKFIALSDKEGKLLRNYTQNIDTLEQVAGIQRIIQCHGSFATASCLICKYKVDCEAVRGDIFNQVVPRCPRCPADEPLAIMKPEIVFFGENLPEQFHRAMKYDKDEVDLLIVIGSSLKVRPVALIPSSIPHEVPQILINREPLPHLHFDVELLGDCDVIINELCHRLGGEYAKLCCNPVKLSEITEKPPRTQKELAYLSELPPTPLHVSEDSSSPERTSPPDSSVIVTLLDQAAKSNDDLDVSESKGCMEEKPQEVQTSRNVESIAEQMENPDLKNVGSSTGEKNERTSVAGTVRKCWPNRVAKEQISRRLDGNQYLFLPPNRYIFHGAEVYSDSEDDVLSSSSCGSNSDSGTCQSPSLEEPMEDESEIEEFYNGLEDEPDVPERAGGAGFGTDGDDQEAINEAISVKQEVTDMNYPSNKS

sirt2 = target: T2, sirt2 (Homo sapiens, UniProt Q8IXJ6); test: as above
T2 sequence (Q8IXJ6 56-356): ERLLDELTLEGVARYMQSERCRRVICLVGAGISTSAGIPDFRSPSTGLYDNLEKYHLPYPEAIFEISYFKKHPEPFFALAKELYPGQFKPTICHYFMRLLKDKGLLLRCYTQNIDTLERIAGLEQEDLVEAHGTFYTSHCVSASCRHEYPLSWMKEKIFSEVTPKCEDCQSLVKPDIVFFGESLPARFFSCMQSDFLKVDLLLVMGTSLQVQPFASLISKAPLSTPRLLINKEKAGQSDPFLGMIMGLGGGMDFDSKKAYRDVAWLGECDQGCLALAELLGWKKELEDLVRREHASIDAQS

sirt3 = target: T3, sirt3 (Homo sapiens, UniProt Q9NTG7); test: fluorescent deacetylase assay, % inhibition at […]; settings: read-out: Sirt 3 (μM or % Inhibition)
T3 construct: sirt3_118–395 (His6-tagged)
T3 sequence (Q9NTG7 118-395): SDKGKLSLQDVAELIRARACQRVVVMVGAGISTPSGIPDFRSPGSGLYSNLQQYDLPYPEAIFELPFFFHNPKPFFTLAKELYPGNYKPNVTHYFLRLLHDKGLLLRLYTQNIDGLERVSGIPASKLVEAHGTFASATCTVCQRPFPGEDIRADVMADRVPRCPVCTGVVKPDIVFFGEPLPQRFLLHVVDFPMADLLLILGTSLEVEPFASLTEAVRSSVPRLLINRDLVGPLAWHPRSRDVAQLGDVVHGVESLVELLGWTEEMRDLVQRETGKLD

Row | SMILES | IC50 (sirt1) | IC50 (sirt2) | inhibition at 50 µM (sirt3)
1 | COc1cc(O)c(C(=O)/C=C/c2ccc(O)cc2)cc1Oc1ccc(C(=O)/C=C/c2ccc(O)cc2O)c(O)c1 [compound 9, rhuschalcone I analogue] | 40.8 ± 8.5 µM | 44.8 ± 5.1 µM | 
2 | COc1cc(O)c(C(=O)/C=C/c2ccc(O)cc2)cc1Oc1ccc(C(=O)/C=C/c2ccc(O)cc2)c(O)c1 [compound 8, rhuschalcone IV] | 46.7 ± 6 µM | 48.5 ± 39.5 µM | 38%
